Tests used:
[1] = molecular target: T1, wild type PKR (Homo sapiens, UniProt P30613); assay: Cell based ATP assay in purified red blood cells (Cell-Titer-Glo); design: endogenous in cells; host or cells: purified red blood cells from healthy volunteers; details: Table 4; AC50, RBCs, overnight at 37° C., ATP levels
Summary of the method: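 ATP levels were quantified by Cell-Titer-Glo after overnight 37 °C exposure of cells to compound (1:4 dilution series, 0.1% DMSO final). The cells were human erythrocytes, filter-purified to remove leukocytes and plated at 1×10^7 cells/mL in AGAM medium.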

[2] = molecular target: PKR R510Q (Homo sapiens, UniProt P30613, R510Q); assay: PKR mutant assay (R510Q), AC50, LDH/NADH-coupled, absorbance at 340 nm; format: biochemical; details: Table 4; AC50, enzyme assay; read-out: PK R510Q
Summary of the method: (§1)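 In this coupled kinetic format, PKR converts PEP and ADP to pyruvate, which LDH reduces while oxidising NADH. Test compounds, diluted from 10 mM DMSO stocks to a 100 μM top concentration, were preincubated 60 min before ADP was added.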

[3] = molecular target: PKR K410E (Homo sapiens, UniProt P30613, K410E); assay: PKR mutant assay (K410E), AC50, LDH/NADH-coupled, absorbance at 340 nm; format: biochemical; details: Table 4; AC50, enzyme assay
Summary of the method: as §1

[4] = molecular target: T1, wild type PKR; assay: PKR (wild type) enzyme AC50 assay, LDH/NADH-coupled, absorbance at 340 nm; format: biochemical; details: Table 4; AC50, enzyme assay; read-out: PKR WT
Summary of the method: as §1

PKR K410E, sequence (P30613 whole entry K410E): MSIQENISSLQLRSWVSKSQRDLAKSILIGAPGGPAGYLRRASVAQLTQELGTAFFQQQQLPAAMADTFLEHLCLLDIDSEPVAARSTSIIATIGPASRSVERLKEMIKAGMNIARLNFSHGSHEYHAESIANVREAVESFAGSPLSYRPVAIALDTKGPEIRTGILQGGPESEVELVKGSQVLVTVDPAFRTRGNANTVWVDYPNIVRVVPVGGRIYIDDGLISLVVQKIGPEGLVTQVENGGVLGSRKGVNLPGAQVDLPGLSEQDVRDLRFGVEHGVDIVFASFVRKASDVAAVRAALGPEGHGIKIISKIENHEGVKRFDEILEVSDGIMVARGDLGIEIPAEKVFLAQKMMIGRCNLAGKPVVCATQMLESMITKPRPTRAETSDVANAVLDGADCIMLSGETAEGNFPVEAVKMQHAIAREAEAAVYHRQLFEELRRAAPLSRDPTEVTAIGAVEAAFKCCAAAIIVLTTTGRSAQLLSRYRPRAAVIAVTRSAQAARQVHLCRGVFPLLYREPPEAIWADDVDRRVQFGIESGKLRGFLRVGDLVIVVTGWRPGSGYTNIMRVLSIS
PKR R510Q, sequence (P30613 whole entry R510Q): as the sequence (P30613 whole entry K410E) above, with E410K, R510Q counted along it
T1 sequence (P30613 whole entry): as the sequence (P30613 whole entry K410E) above, with E410K counted along it

| SMILES | EC50 [1] [nM] | EC50 [2] [nM] | EC50 [3] [nM] | EC50 [4] [nM] | Cell based ATP assay [1] |
| --- | --- | --- | --- | --- | --- |
| Cn1c2nc(Cc3c[nH]nn3)sc2c2cnn(Cc3ccccc3)c(=O)c21 [Compound 273] | > 1000 | > 800 | > 800 | > 800 |  |
| Cn1c2nc(Cc3cc[nH]n3)sc2c2cnn(Cc3cccc4c3NS(=O)(=O)N4)c(=O)c21 [Compound 275] | > 1000 | > 800 | > 800 | > 800 |  |
| Cn1c2nc(Cc3cccc(N)n3)sc2c2cnn(Cc3cccc4[nH]ncc34)c(=O)c21 [Compound 276] | ≤ 1000 | < 300 | < 300 | < 300 |  |
| Cn1c2nc(Cn3ccnc3)sc2c2cnn(Cc3cccc4[nH]ncc34)c(=O)c21 [Compound 277] | > 1000 | > 800 | 301 to 800 | > 800 |  |
| Cn1c2nc(Cc3cc[nH]n3)sc2c2cnn(Cc3cccc4[nH]cnc34)c(=O)c21 [Compound 278] | ≤ 1000 | < 300 | < 300 | < 300 |  |
| Cn1c2nc(Cc3cc[nH]n3)sc2c2cnn(Cc3ccc4[nH]ncc4n3)c(=O)c21 [Compound 280] | ≤ 1000 | < 300 | < 300 | < 300 |  |
| Cn1ncc2nc(Cn3ncc4c5sc(Cc6cc[nH]n6)nc5n(C)c4c3=O)ccc21 [Compound 288] | ≤ 1000 | < 300 | < 300 | < 300 |  |
| Cn1c2nc(Cc3c[nH]nn3)sc2c2cnn(Cc3cccc(OC(F)(F)F)c3)c(=O)c21 [Compound 290] | ≤ 1000 | < 300 | < 300 | < 300 |  |
| Cn1c2nc(Cn3cccn3)sc2c2cnn(Cc3cccc4[nH]ncc34)c(=O)c21 [Compound 292] | ≤ 1000 | < 300 | < 300 | < 300 |  |
| Cn1c2nc(Cn3cncn3)sc2c2cnn(Cc3cccc4[nH]ncc34)c(=O)c21 [Compound 293] | ≤ 1000 | 301 to 800 | < 300 | < 300 |  |
| Cn1c2nc(Cn3cnnc3)sc2c2cnn(Cc3cccc4[nH]ncc34)c(=O)c21 [Compound 294] | > 1000 | 301 to 800 | > 800 | > 800 |  |
| Cn1c2nc(Cc3c[nH]nn3)sc2c2cnn(Cc3ccc(OC(F)(F)F)cc3)c(=O)c21 [Compound 295] | ≤ 1000 | < 300 | < 300 | < 300 |  |
| Cn1c2nc([C@@H](O)c3cc[nH]n3)sc2c2cnn(Cc3cccc4[nH]ncc34)c(=O)c21 [Compound 304] | ≤ 1000 | < 300 | < 300 | < 300 |  |
| Cn1c2nc([C@H](O)c3cc[nH]n3)sc2c2cnn(Cc3cccc4[nH]ncc34)c(=O)c21 [Compound 305] | ≤ 1000 | < 300 | < 300 | < 300 |  |
| Cn1c2nc(Cc3cc[nH]n3)sc2c2cnn(Cc3cccc4[nH][nH]c(=O)c34)c(=O)c21 [Compound 307] | ≤ 1000 | < 300 | < 300 | < 300 |  |
| Cn1c2nc(Cc3cn[nH]n3)sc2c2cnn(Cc3cccc(OC(F)(F)F)c3F)c(=O)c21 [Compound 329] | ≤ 1000 | < 300 | 301 to 800 | 301 to 800 |  |
| Cn1c2nc(Cc3cc[nH]n3)sc2c2cnn(Cc3cccc(O)c3)c(=O)c21 [Compound 369] | ≤ 1000 | < 300 | < 300 | < 300 |  |
| Cn1c2nc(Cc3cc[nH]n3)sc2c2cnn(Cc3n[nH]c4ccccc34)c(=O)c21 [Compound 372] | ≤ 1000 | < 300 | < 300 | < 300 |  |
| Cn1c2nc(Cc3cc[nH]n3)sc2c2cnn(Cc3n[nH]c4ncccc34)c(=O)c21 [Compound 374] | ≤ 1000 | < 300 | < 300 | < 300 |  |
| Cn1c2nc(Cc3cc[nH]n3)sc2c2cnn(Cc3n[nH]c4cccnc34)c(=O)c21 [Compound 379] | ≤ 1000 | < 300 | < 300 | < 300 |  |
| Cn1c2nc(Cc3cc[nH]n3)sc2c2cnn(Cc3ccc4cc[nH]c4n3)c(=O)c21 [Compound 380] | ≤ 1000 | < 300 | < 300 | < 300 |  |
| Cn1c2nc(Cc3cc[nH]n3)sc2c2cnn(Cc3ccc4nc[nH]c4n3)c(=O)c21 [Compound 381] | ≤ 1000 | < 300 | < 300 | < 300 |  |
| Cn1c2nc(Cc3n[nH]cc3F)sc2c2cnn(Cc3ccccc3)c(=O)c21 [Compound 382] | ≤ 1000 | < 300 | < 300 | < 300 |  |
| Cn1c2nc(Cc3cc[nH]n3)sc2c2cnn(Cc3ccc4c(F)c[nH]c4n3)c(=O)c21 [Compound 383] | ≤ 1000 | < 300 | < 300 | < 300 |  |
| Cn1c2nc(Cc3cc[nH]n3)sc2c2cnn(Cc3ccc4c(n3)NCC4)c(=O)c21 [Compound 384] | ≤ 1000 | < 300 | < 300 | < 300 |  |
| Cn1c2nc(Cc3cc[nH]n3)sc2c2cnn(CCc3cccc(N)n3)c(=O)c21 [Compound 385] | ≤ 1000 | < 300 | < 300 | < 300 |  |
| Cn1c2nc(Cc3cc[nH]n3)sc2c2cnn(Cc3ccc4oc(=O)[nH]c4n3)c(=O)c21 [Compound 386] | ≤ 1000 | < 300 | < 300 | < 300 |  |

Further lines, results first:

| EC50 [1] [nM] | EC50 [2] [nM] | EC50 [3] [nM] | EC50 [4] [nM] | Cell based ATP assay [1] | SMILES |
| --- | --- | --- | --- | --- | --- |
| > 1000 | < 300 | < 300 | 301 to 800 |  | Cn1c2nc(Cc3cc[nH]n3)sc2c2cnn(Cc3ccc4c(n3)NC(=O)C4)c(=O)c21 [Compound 387] |
| ≤ 1000 | < 300 | < 300 | < 300 |  | Cn1c2nc(Cc3cc[nH]n3)sc2c2cnn(Cc3ccc4cc(Cl)[nH]c4n3)c(=O)c21 [Compound 388] |
| > 1000 | 301 to 800 | > 800 | > 800 |  | Cn1cc(Cc2nc3c(s2)c2cnn(Cc4cccc(C(N)=O)c4)c(=O)c2n3C)cn1 [Compound 389] |
|  | > 800 | > 800 | > 800 | No Fit | Cn1c2nc(Cn3ccnc3)sc2c2cnn(Cc3cccc(C(N)=O)c3)c(=O)c21 [Compound 390] |
| ≤ 1000 | < 300 | < 300 | < 300 |  | Cn1c2nc(Cc3cc[nH]n3)sc2c2cnn(Cc3ccc4cc(F)[nH]c4n3)c(=O)c21 [Compound 391] |
| ≤ 1000 | < 300 | < 300 | < 300 |  | Cn1ccc(CCn2ncc3c4sc(Cc5cc[nH]n5)nc4n(C)c3c2=O)n1 [Compound 392] |
| ≤ 1000 | < 300 | < 300 | < 300 |  | Cn1ccc(Cn2ncc3c4sc(CCc5cc[nH]n5)nc4n(C)c3c2=O)n1 [Compound 393] |
| ≤ 1000 | < 300 | < 300 | < 300 |  | Cn1c2nc(CCc3cc[nH]n3)sc2c2cnn(Cc3cccc(N)n3)c(=O)c21 [Compound 394] |
| > 1000 | > 800 | 301 to 800 | > 800 |  | Cc1nc2c(s1)c1cnn(Cc3cccc(C(N)=O)c3)c(=O)c1n2C [Compound 395] |
| ≤ 1000 | < 300 | < 300 | < 300 |  | Cn1c2nc(Oc3ccn[nH]3)sc2c2cnn(Cc3cccc(N)n3)c(=O)c21 [Compound 396] |
|  | > 800 | > 800 | > 800 | No Fit | Cn1c2nc(Cc3cc[nH]n3)sc2c2cnn(CC3CCCCC3)c(=O)c21 [Compound 397] |
|  | > 800 | > 800 | > 800 | No Fit | C=CCn1ncc2c3sc(Cc4ccccn4)nc3n(C)c2c1=O [Compound 398] |
|  | > 800 | > 800 | > 800 | No Fit | Cn1c2nc(Cc3cc[nH]n3)sc2c2cnn(CCc3cccnc3)c(=O)c21 [Compound 399] |
| > 1000 | > 800 | > 800 | > 800 |  | Cn1ccc(CCn2ncc3c4sc(Cc5cccnc5)nc4n(C)c3c2=O)n1 [Compound 400] |
| ≤ 1000 | < 300 | < 300 | < 300 |  | Cn1c2nc(Cc3cc[nH]n3)sc2c2cnn(CCc3cscn3)c(=O)c21 [Compound 401] |
|  | > 800 | > 800 | > 800 | No Fit | CCn1c2nc(Cc3cc[nH]n3)sc2c2cnn(Cc3ccccc3)c(=O)c21 [Compound 402] |
|  | > 800 | > 800 | > 800 | No Fit | Cn1c2nc(Cc3ccccn3)sc2c2cnn(CC3CCOCC3)c(=O)c21 [Compound 403] |
| ≤ 1000 | < 300 | < 300 | < 300 |  | C#CCn1ncc2c3sc(Cc4ccccn4)nc3n(C)c2c1=O [Compound 404] |

Source: patent US11957680B2, “Pyruvate kinase activators for use in treating blood disorders” (Agios Pharmaceuticals, Inc., priority 2017, dated 2024)
